Measured values reported in patent US3954793A, “1-(2-Propynyl)-1 H-indazole compounds” (priority 1973, dated 1976).

Assays:
[1] = test system: IN/WHO strain house flies; assay: topical application, percent kill after 24 hours, susceptible IN/WHO strain; assay type: in vivo, female); settings: for percent kill after 24 hours, synergist alone (GS 13005 part of Table XXXI): GS 13005 0, synergist 1 μg/fly; for percent kill after 24 hours, synergist alone: insecticide 0, synergist 1 μg/fly; for percent kill after 24 hours, with Diazinon: Diazinon 0.03 + synergist 0.15 μg/fly
In short: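 Insecticide plus synergist in acetone, 1.0 μl applied to the thorax of CO2-anesthetized 3-to-5-day-old female IN/WHO house flies, doses in μg/fly. Flies held 10 per dish, 3-5 dishes per treatment, with skim milk. Percent mortality scored after 24 h.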

[2] = test system: Swiss albino, white male mice; assay: acute toxicity and synergism of acute toxicity in mice; assay type: in vivo; settings: for number of mice dead, with Dimetilan: 48 hours; for number of mice dead, with Dimetilan / number of mice dead, synergist alone: eight mice; for number of mice dead, with GS 13005: GS 13005 71 + synergist 213 mg/kg; for number of mice dead, with Methadone: Methadone 32 + synergist 215 mg/kg; for number of mice dead, with Secobarbital: Secobarbital 90 + synergist 215 mg/kg; for number of mice dead, synergist alone: synergist 1000 mg/kg i.p., Dimetilan 0, 72 hours
In short: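 Male Swiss albino mice (23 to 27 g, five to six weeks), eight per dose, dosed intraperitoneally in corn oil: dimetilan alone at 4 to 32 mg per kg, synergists alone at 1000 mg/kg with deaths counted at 72 hours. For synergism, synergist given 1 hour before insecticide, lethality observed for at least 6 hours.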

male mice = assay: extension of sleeping time of depressant drugs by synergists; assay type: in vivo, male mice (Swiss albino white); settings: for Mean Sleeping Time, Noludar / Relative Sleeping Time, Noludar: Noludar 110 mg/kg; for Relative Sleeping Time, Noludar / Relative Sleeping Time, Secobarbital: treated/control; for Mean Sleeping Time, Secobarbital / Relative Sleeping Time, Secobarbital: Secobarbital 37 mg/kg
In short: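 Swiss albino male mice (~38 days, 25-30 g) given synergist at 74.0 or 110.0 mg/kg in corn oil 1 h before Secobarbital 37.0 mg/kg or Noludar 110.0 mg/kg in water. Sleeping time measured from drug dosing to righting-reflex recovery; relative sleeping time = treated ÷ drug-only control.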

[3] = GS 13005 0.10 + synergist 0.50 μg/fly
[4] = Mobam 0.20 + synergist 1 μg/fly
[5] = Dimetilan 8 + synergist 80 mg/kg i.p.
[6] = Dimetilan 8 + synergist 240 mg/kg i.p.
[7] = synergist 110 mg/kg one hour prior
[8] = synergist 74 mg/kg one hour prior
[9] = GS 13005 0.05 + synergist 0.25 μg/fly
[10] = GS 13005 0.10 + synergist 0.125 μg/fly
[11] = GS 13005 0.10 + synergist 0.25 μg/fly

SMILES | percent kill after 24 hours, synergist alone (GS 13005 part of Table XXXI) [1] | percent kill after 24 hours, with GS 13005 [1, 3] | percent kill after 24 hours, with Mobam [1, 4] | percent kill after 24 hours, synergist alone [1] | number of mice dead, with Dimetilan [2, 5] | number of mice dead, with Dimetilan [2, 6] | number of mice dead, with GS 13005 [2] | number of mice dead, with Methadone [2] | number of mice dead, with Secobarbital [2] | number of mice dead, synergist alone [2] | Mean Sleeping Time, Noludar (male mice; [7]) | Relative Sleeping Time, Noludar (male mice; synergist 110 mg/kg) | Mean Sleeping Time, Secobarbital (male mice; [8]) | Relative Sleeping Time, Secobarbital (male mice; synergist 74 mg/kg) | Mean Sleeping Time, Secobarbital (male mice; [7]) | Relative Sleeping Time, Secobarbital (male mice; synergist 110 mg/kg) | percent kill after 24 hours, with Diazinon [1] | percent kill after 24 hours, with GS 13005 [1, 9] | percent kill after 24 hours, with GS 13005 [1, 10] | percent kill after 24 hours, with GS 13005 [1, 11] | other results
C#CCOCc1c(Cl)cccc1[N+](=O)[O-] [II-K] | 10% | 100% | 100% | 10% | 0 | 6 | 3 | 2 | 1 | 1 | 75 min | 2.4 | 48 min | 1.5 | 44 min | 2 |  |  |  |  | 24 hour percent mortality, Baygon with five parts II-K ([1]; Baygon 0.125 μg/fly, five parts synergist): 83%; 24 hour percent mortality, Bidrin with five parts II-K ([1]; Bidrin 0.063 μg/fly, five parts synergist): 0%; 24 hour percent mortality, Bidrin with five parts II-K ([1]; Bidrin 0.13 μg/fly, five parts synergist): 57%; 24 hour percent mortality, Dimetilan with five parts II-K ([1]; Dimetilan 0.031 μg/fly, five parts synergist): 7%; 24 hour percent mortality, Dimetilan with five parts II-K ([1]; Dimetilan 0.063 μg/fly, five parts synergist): 70%; 24 hour percent mortality, Dimetilan with five parts II-K ([1]; Dimetilan 0.13 μg/fly, five parts synergist): 100%; 24 hour percent mortality, Gardona with five parts II-K ([1]; Gardona 0.031 μg/fly, five parts synergist): 63%; 24 hour percent mortality, Gardona with five parts II-K ([1]; Gardona 0.063 μg/fly, five parts synergist): 100%; 24 hour percent mortality, HRS 1422 with five parts II-K ([1]; HRS 1422 0.125 μg/fly, five parts synergist): 77%; 24 hour percent mortality, Pyrolan with five parts II-K ([1]; Pyrolan 0.063 μg/fly, five parts synergist): 7%; 24 hour percent mortality, Pyrolan with five parts II-K ([1]; Pyrolan 0.13 μg/fly, five parts synergist): 40%; 24 hour percent mortality, Pyrolan with five parts II-K ([1]; Pyrolan 0.25 μg/fly, five parts synergist): 80%
C#CCOCc1ccccc1[N+](=O)[O-] [II-P, 2-nitrobenzyl 2-propynyl ether] | 0% | 96% |  | 0% |  | 0 | 6 | 0 | 0 | 2 | 44 min | 1.5 |  |  | 46 min | 1.0 | 30% | 10% | 69% | 85% | 
C#CCOCc1ccc([N+](=O)[O-])cc1 [II-Q, 4-nitrobenzyl 2-propynyl ether] | 0% | 90% |  |  |  | 1 | 6 |  |  | 7 | 41 min | 2.1 | 30 min | 1.1 | 73 min | 1.6 |  | 25% | 43% | 67% | 
C#CCOCc1cccc2ccccc12 [II-R, α-napthylmethyl 2-propynyl ether] | 0% | 68% |  | 0% | 0 | 2 |  |  |  |  | 49 min | 1.7 | 35 min | 1.2 | 96 min | 1.6 | 22% |  | 49% | 65% | 
C#CCOC(c1ccc(Cl)cc1)C(C)[N+](=O)[O-] (stereo not drawn) [IV-C] |  | 89% | 64% | 0% | 5 | 7 |  |  |  |  | 74 min | 2.5 | 112 min | 4.7 |  |  | 29% | 9% | 63% | 75% | percent kill after 24 hours, with Mobam ([1]; Mobam 0.20 + synergist 0.25 μg/fly): 39%; percent kill after 24 hours, with Mobam ([1]; Mobam 0.20 + synergist 0.50 μg/fly): 60%
